{
  "source": "patent US7108863B2",
  "about": "“Liposome composition for improved intracellular delivery of a therapeutic agent” (Alza Corporation, priority 2001, dated 2006)",
  "key": {"[1]": {"tested_on": "CD 19± human B-lymphoma (Namalwa) cells", "assay": "Survival of SCID mice implanted i.v. with Namalwa cells", "type": "in vivo", "method": "In another study performed in support of the invention, mice were treated with targeted, pH-sensitive liposomes having releasable PEG chains. Entrapped in the liposomes was the therapeutic agent doxorubicin (DXR). As described in Example 9, the mice were treated with a single dose of 3 mg DXR/kg in free form or entrapped in liposomes. The liposome formulations are summarized in Table 2 and detailed in Example 8.\nNamalwa cells were passaged i.p. in CB-17/ICR Tac SCID mice (Charles River Laboratories, Quebec, Canada) to develop a more virulent strain with reproducible tumor take (Lopes de Menezes et al., Cancer Res., 58:3320 (1998)). Namalwa cells were harvested in sterile PBS and implanted into SCID mice. Cell viability was assessed by dye exclusion using Trypan Blue dye before and after the implantation process.\nSCID mice (5 mice/group) (Charles River Laboratories), 6–8 weeks of age, were implanted with Namalwa cells i.v. (5×10^6) and treated i.v. at 24 h after implantation with a single dose of 3 mg doxorubicin/kg as either free doxorubicin, doxorubicin-SIL[anti-CD19] or targeted DXR-loaded DOPE/CHEMS formulations stabilized with either mPEG-DSPE or mPEG-S-S-DSPE. The treatment regimens were as follows:\nAll treatment groups received 3 mg doxorubicin/kg. Mice were monitored routinely for weight loss, and euthanized as they became moribund; survival times were recorded. […]"}, "Namalwa cells": {"tested_on": "Namalwa cells", "assay": "Nuclear accumulation of doxorubicin in Namalwa cells", "type": "cell-based, human", "settings": "8 μM DXR, 0-12 hours", "method": "Nuclear accumulation of doxorubicin was determined as described in Example 7. Briefly, Namalwa cells, maintained under logarithmic growth conditions were treated with doxorubicin-entrapped liposome formulations at a doxorubicin concentration of 8 μM. At various time points (0, 2, 4, 8, 12 hours), an aliquot of the treated cells was ruptured to recover the nuclei. The DNA in the nuclei were enzymatically digested and doxorubicin fluorescence was measured.\nNuclear accumulation of doxorubicin was determined according to the method of Kirchmeier et al. (J. Liposome Res., 11:15 (2001)). Briefly, 4.5×10^8/500 ml Namalwa cells, maintained under logarithmic growth conditions in RPMI 1640 supplemented with 10% FBS, were treated with either free DXR or various liposomal DXR formulations at a DXR concentration of 8 μM.\nAt various time points (0, 2, 4, 8, 12 hours), 100 ml of cells was pelleted by centrifugation at 1000 rpm for 10 min and washed with 20 ml of TEA buffer. […] After removal of the supernatant, the pellet was diluted to 1 ml with TEA buffer, then vortexed and sonicated until the nuclei were evenly dispersed, as determined by visual inspection.\nFor each time point, three aliquots of the nuclear fractions (0.2 ml each) were placed in 1.3 ml TEA. […] Following digestion at 22° C. for 2 hours, the doxorubicin fluorescence was recorded (excitation at 480 nm and emission at 595 nm). […]"}, "CD19^+ Namalwa cells": {"tested_on": "CD19^+ Namalwa cells", "assay": "In vitro cytotoxicity, MTT proliferation assay on Namalwa cells", "type": "cell-based", "settings": "Homo sapiens, 48 hours, mean ± SD, read-out: IC50 (μM DXR)", "method": "In vitro cytotoxicity of free DXR and various liposomal formulations was evaluated using Namalwa cells with an in vitro proliferation assay as described in Example 6. In addition to the targeted, pH-sensitive liposomes, conventional, non-pH sensitive sterically stabilized liposome (DXR-SL) and doxorubicin in free form were also tested. Each of the test formulations was incubated with the Namalwa cells under controlled conditions for 48 hours. At the end of the incubation time, cytotoxicity was expressed as the inhibitory concentration, that is the concentration required for a 50% inhibition of cell growth (IC50).\nA comparison of the in vitro cytotoxicity of free doxorubicin and various liposomal formulations (Table 1) was performed on Namalwa cells with an in vitro proliferation assay using a tetrazolium dye (MTT -3-(4,5-dimethylthiazol-2-yl)-2,5 diphenyltetrazolim bromide; Mosmann, J. J. Immunol Methods, 65:55 (1983)), as described in Lopes de Menezes et al, Cancer Res., 58:3320 (1998).\nBriefly, 5×10^5 Namalwa cells were plated in 96-well plates and incubated with either free DXR or various formulations of liposome-encapsulated doxorubicin with or without anti-CD19 mAb. […] At the end of the incubation period, tetrazolium dye was added, and the plates were read on a Titertek Multiskan Plus (Flow Laboratories, Inc. Mississauga, Ontario, Canada) at dual wavelengths of 570 and 650 nm. […]"}},
  "data": [
    {"smiles": "COc1cccc2c1C(=O)c1c(O)c3c(c(O)c1C2=O)C[C@@](O)(C(=O)CO)C[C@@H]3O[C@H]1C[C@H](N)[C@H](O)[C@H](C)O1", "note": "[Free DXR, doxorubicin]", "values": [
      {"measurement": "Increased Life Span (% ILS)", "setting": "[1]; relative to mean survival time of control mice, 3 mg DXR/kg i.v.", "value": 9.5, "unit": "%"},
      {"measurement": "Mean Survival Time (MST ± S.D. (days))", "setting": "[1]; single i.v. dose 3 mg DXR/kg 24 h after i.v. implantation, 5 mice/group", "value": "23.0 ± 1.4", "unit": "days"},
      {"measurement": "nuclear accumulation of doxorubicin (in words)", "setting": "Namalwa cells", "value": "fastest rate"},
      {"measurement": "IC50", "setting": "CD19^+ Namalwa cells", "value": "0.8 ± 0.7", "unit": "µM"}
    ]}
  ]
}
